The values that follow come from ChEMBL document CHEMBL1201862, “PubChem BioAssay data set” (2004).

Among the test systems are 786-0; A549; EKVX; HCC 2998; HOP-92; Hs-578T; IGROV-1; K562; MDA-MB-231; Malme-3M; NCI-H226; OVCAR-5; RPMI-8226; SF-268; SK-MEL-28; SK-MEL-5; SNB-75; SR; T47D; TK-10.
What all share (assay): DTP human tumour cell line panel, 48 h

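Step 1: Grow cells in 96-well plates. Step 2: Expose to compound for 48 hours at 5 concentrations. Step 3: Interpolate endpoints linearly; if unreached, use highest concentration. Here, GI50 denotes the concentration required for 50% inhibition of growth.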 Activity calls are given as the source filed them. Cut-off read from the data, not from the text of the source: active = GI50 up to about 1.1 µM and inactive = higher. Bounds are passed on as bounds.

As usually defined, the GI50 is the concentration at which growth is held to half of that of the control. As for `CCOC1OC(CO[Si](C)(C)C(C)(C)C)C(O)CC1n1ccc(=O)[nH]c1=O` (configuration not stated), the GI50 was 78.3 µM (inactive) in the assay on 786-0; 51.5 µM (inactive) in the assay with A549; > 100 µM (inactive) with EKVX; > 100 µM (inactive) in the assay with HCC 2998; 85.7 µM (inactive) in the assay with HOP-92; > 100 µM (inactive) with Hs-578T. The GI50 was 21.5 µM (inactive) in the assay on IGROV-1; 31.9 µM (inactive) in the assay with K562; 67 µM (inactive) with MDA-MB-231; > 100 µM (inactive) in the assay on Malme-3M; > 100 µM (inactive) in the assay with NCI-H226; > 100 µM (inactive) with OVCAR-5. The GI50 was 49.8 µM (inactive) in the assay on RPMI-8226; 30.8 µM (inactive) in the assay on SF-268; 61.4 µM (inactive) with SK-MEL-28; 59.2 µM (inactive) in the assay with SK-MEL-5; > 100 µM (inactive) in the assay on SNB-75; 42.6 µM (inactive) with SR. In addition, the GI50 with T47D was 52 µM (inactive); in the assay on TK-10 it was > 100 µM (inactive).
On to `COc1ccc2nc3cc(Cl)ccc3c(NCCNC(=O)Cn3c(=O)n(C)c(=O)c4c3nc3c(c(=O)n(C)c(=O)n3C)[n+]4[O-])c2c1`, for which the GI50 with 786-0 was 43.1 µM (inactive); with A549, 71.8 µM (inactive); in the assay on EKVX, 34.7 µM (inactive); in the assay with HCC 2998 it was 30.2 µM (inactive); in the assay with HOP-92, 28.1 µM (inactive); in the assay on Hs-578T it was 20.3 µM (inactive). Also, the GI50 with IGROV-1 is 19.1 µM (inactive); with K562 it was 46.8 µM (inactive); with MDA-MB-231, 50.7 µM (inactive); in the assay on Malme-3M, 37.2 µM (inactive); in the assay with NCI-H226, 35.6 µM (inactive); with OVCAR-5, > 72.8 µM (inactive). In addition, the GI50 is > 80.9 µM (inactive) in the assay with RPMI-8226; 17.2 µM (inactive) in the assay on SF-268; > 31.6 µM (inactive) in the assay on SK-MEL-28; 58.2 µM (inactive) in the assay on SK-MEL-5; 33.9 µM (inactive) in the assay with SNB-75; 18.5 µM (inactive) with SR. Moreover, the GI50 in the assay on T47D is 35.6 µM (inactive); in the assay with TK-10, 29 µM (inactive).
`CCCCc1ccc(Nc2ncc3ncn(COCCO)c3n2)cc1`: the GI50 with 786-0 is 26.6 µM (inactive); in the assay with A549 it was 37.2 µM (inactive); in the assay with EKVX, 22.9 µM (inactive); with HCC 2998, 20.3 µM (inactive); in the assay on HOP-92, 25.8 µM (inactive); in the assay on Hs-578T, 20.8 µM (inactive). The GI50 is 28.6 µM (inactive) in the assay with IGROV-1; 14 µM (inactive) in the assay with K562; 18.9 µM (inactive) in the assay on MDA-MB-231; 23.1 µM (inactive) in the assay with Malme-3M; 62.2 µM (inactive) in the assay on NCI-H226; 32.7 µM (inactive) in the assay with OVCAR-5. For the same compound, the GI50 in the assay with RPMI-8226 was 16.4 µM (inactive); with SF-268 it was 40.9 µM (inactive); with SK-MEL-5 it was 21.8 µM (inactive); in the assay with SNB-75, 24.8 µM (inactive); with SR it was 17.1 µM (inactive); in the assay on T47D it was 28.4 µM (inactive). The GI50 in the assay with TK-10 was 37.8 µM (inactive).
`CC1CC2OC(=O)C(C)C2CC2(C)C(OC3OC(CO)C(O)C(O)C3O)OCCC12` (configuration not stated): the GI50 with 786-0, in the assay with A549, with EKVX, in the assay with HCC 2998, with HOP-92 and with Hs-578T was > 100 µM (inactive) in each case. Further, the GI50 with IGROV-1, with K562, in the assay on MDA-MB-231, in the assay on Malme-3M, in the assay with NCI-H226 and in the assay with OVCAR-5 was > 100 µM (inactive) each time. Further, the GI50 in the assay with RPMI-8226, in the assay with SF-268, in the assay on SK-MEL-28, with SK-MEL-5, in the assay with SNB-75 and with SR was > 100 µM (inactive) each time. For the same compound, the GI50 in the assay with T47D and with TK-10 was > 100 µM (inactive) in each case.
As to `CCOc1cc(NC(C)=O)ccc1C(=O)NN1C(=O)C(Oc2ccccc2)C1c1ccccc1` (configuration not stated), the GI50 with 786-0, with EKVX, in the assay on HCC 2998, in the assay with HOP-92, in the assay with Hs-578T and in the assay with IGROV-1 was > 100 µM (inactive) throughout. Also, the GI50 in the assay on K562 is 49.5 µM (inactive); in the assay on MDA-MB-231, > 100 µM (inactive); in the assay on Malme-3M it was 52.5 µM (inactive); in the assay on NCI-H226, 57.8 µM (inactive); with OVCAR-5, > 100 µM (inactive); in the assay with RPMI-8226 it was 35.9 µM (inactive). In addition, the GI50 in the assay on SF-268 is > 100 µM (inactive); in the assay with SK-MEL-28, > 100 µM (inactive); in the assay on SK-MEL-5, 42.8 µM (inactive); in the assay with SNB-75, 92.3 µM (inactive); in the assay on SR, 4.15 µM (inactive); in the assay with T47D, 44.4 µM (inactive). Besides, the GI50 in the assay on TK-10 is > 100 µM (inactive).
As to `CCOc1ccnc2c(OC)c(C)c3nc4ccccc4nc3c12`, the GI50 is > 100 µM (inactive) with 786-0; > 100 µM (inactive) in the assay with A549; > 100 µM (inactive) with EKVX; > 100 µM (inactive) in the assay with HCC 2998; 93.8 µM (inactive) in the assay on HOP-92; > 100 µM (inactive) in the assay with Hs-578T. In addition, the GI50 was 52.1 µM (inactive) with IGROV-1; 98.6 µM (inactive) in the assay with K562; > 100 µM (inactive) in the assay with MDA-MB-231; > 100 µM (inactive) with Malme-3M; > 100 µM (inactive) in the assay with NCI-H226; > 100 µM (inactive) in the assay on OVCAR-5. Also, the GI50 with RPMI-8226 was > 100 µM (inactive); in the assay with SF-268, > 100 µM (inactive); in the assay with SK-MEL-28, > 100 µM (inactive); in the assay on SK-MEL-5, > 100 µM (inactive); with SNB-75, 25.3 µM (inactive); in the assay on SR it was 18.6 µM (inactive). The GI50 in the assay with T47D is 3.31 µM (inactive); with TK-10, > 100 µM (inactive).
With `Cn1c([N+](=O)[O-])cnc1CN1CCN(CCO)CC1`, the GI50 in the assay on 786-0, in the assay with A549, with EKVX, in the assay with HCC 2998, with HOP-92 and with Hs-578T was > 100 µM (inactive) in each case. Besides, the GI50 in the assay on IGROV-1, in the assay with K562, in the assay with MDA-MB-231, with Malme-3M, with NCI-H226 and with OVCAR-5 was > 100 µM (inactive) in each case. Besides, the GI50 with RPMI-8226, in the assay on SF-268, with SK-MEL-28, in the assay with SK-MEL-5, in the assay with SNB-75 and in the assay with SR was > 100 µM (inactive) throughout. The GI50 with T47D and in the assay on TK-10 was > 100 µM (inactive) each time.
As to `CCC1=CC(OCc2ccccc2)C(CCN(Cc2ccccc2)C(=O)OCc2ccccc2)C1` (configuration not stated), the GI50 was 19.3 µM (inactive) in the assay with 786-0; 15.5 µM (inactive) in the assay with A549; 16.1 µM (inactive) with EKVX; 16.5 µM (inactive) in the assay with HCC 2998; 13.5 µM (inactive) with HOP-92; 11.5 µM (inactive) in the assay on Hs-578T. Moreover, the GI50 in the assay with IGROV-1 is 15.6 µM (inactive); with K562, 11 µM (inactive); in the assay on MDA-MB-231 it was 18.5 µM (inactive); in the assay on Malme-3M it was 15.6 µM (inactive); in the assay on NCI-H226 it was 15.7 µM (inactive); in the assay on OVCAR-5 it was 13.5 µM (inactive). Besides, the GI50 in the assay with RPMI-8226 was 8.59 µM (inactive); in the assay with SF-268 it was 15.6 µM (inactive); in the assay on SK-MEL-28, 20.7 µM (inactive); in the assay on SK-MEL-5 it was 15.4 µM (inactive); in the assay with SNB-75 it was 10.3 µM (inactive); with SR, 17.3 µM (inactive). The GI50 with T47D was 6.01 µM (inactive); with TK-10 it was 16.5 µM (inactive).
In the case of `CCOC(=O)c1c(SCCN2CCOCC2)n(-c2ccccc2)c(=S)n(-c2ccccc2)c1=O`, the GI50 was 21.2 µM (inactive) in the assay on 786-0; > 100 µM (inactive) in the assay with A549; > 100 µM (inactive) with HCC 2998; 51.6 µM (inactive) with HOP-92; 37.8 µM (inactive) with Hs-578T; 42.5 µM (inactive) in the assay with IGROV-1. Also, the GI50 in the assay with K562 is 19 µM (inactive); with MDA-MB-231, 44 µM (inactive); in the assay on Malme-3M it was > 100 µM (inactive); in the assay with NCI-H226, 38.5 µM (inactive); in the assay on OVCAR-5, > 100 µM (inactive); with RPMI-8226, 33.7 µM (inactive). Moreover, the GI50 was 37.4 µM (inactive) in the assay on SF-268; 24 µM (inactive) in the assay on SK-MEL-28; 27.7 µM (inactive) in the assay on SK-MEL-5; 76.2 µM (inactive) in the assay on SNB-75; 18.4 µM (inactive) with SR; 31.8 µM (inactive) in the assay with T47D. Besides, in the assay with TK-10, the GI50 was > 100 µM (inactive).
Regarding `Cn1cc(-c2n[nH]c(-c3ccc(Cl)cc3)nc2=O)c2ccccc21`, the GI50 in the assay on 786-0 is 3.38 µM (inactive); in the assay with A549 it was 3.94 µM (inactive); in the assay with EKVX, 4.41 µM (inactive); in the assay with HCC 2998, 1.57 µM (inactive); in the assay with HOP-92, 12.3 µM (inactive); in the assay on Hs-578T, 2.76 µM (inactive). In addition, the GI50 with IGROV-1 is 4.58 µM (inactive); in the assay with K562, 0.544 µM (active); in the assay on MDA-MB-231, 15.5 µM (inactive); in the assay on Malme-3M it was 3.44 µM (inactive); in the assay on NCI-H226, 3.84 µM (inactive); in the assay on OVCAR-5, 4.34 µM (inactive). Further, the GI50 with RPMI-8226 was 3.23 µM (inactive); in the assay with SF-268, 7.59 µM (inactive); with SK-MEL-28 it was > 71.1 µM (inactive); with SK-MEL-5, 1.35 µM (inactive); in the assay on SNB-75 it was 3.11 µM (inactive); in the assay with SR, 0.774 µM (active). The GI50 in the assay with T47D is 9.59 µM (inactive); in the assay with TK-10, 11.8 µM (inactive).
